In ChEMBL document CHEMBL5365456, “Isolation and biological activity of natural chalcones based on antibacterial mechanism classification” (Bioorg Med Chem, 2023):
Converted amounts (≈) assume the structure as drawn.

Assays:
[1] = Inhibition of Escherichia coli 0157:H7 AI-2 incubated for 3.5 hrs in dark condition by microplate reader analysis
Escherichia coli [2] = assay: Antibiofilm activity against Escherichia coli 0157:H7 at 6.25 uM incubated for 24 hr by crystal violet staining based assay relative to control; assay type: functional
Escherichia coli [3] = assay: Antibiofilm activity against Escherichia coli 0157:H7 at 200 uM incubated for 24 hr by crystal violet staining based assay relative to control; assay type: functional
[4] = Inhibition of His-tagged Escherichia coli ANS1 Fab1 using trans-2-octanoyl-N-acetylcysteamine as substrate by spectrometric analysis
[5] = Inhibition of His-tagged Escherichia coli ANS1 FabG using acetoacetyl-CoA as substrate by spectrometric analysis
Staphylococcus xylosus [6] = assay: Antibiofilm activity against Staphylococcus xylosus ATCC 700404 at 20 ug/ml incubated for 24 hr by crystal violet staining based assay relative to control; assay type: functional
[7] = Inhibition of FAS2 in Mycobacterium smegmatis mc2 155 transfected with pVV16 vector expressing Rv0636 by BCA assay; design: species or system Mycolicibacterium smegmatis
[8] = Inhibition of FAS1 in Mycobacterium smegmatis mc2 155 transfected with pVV16 vector expressing Rv0636 by BCA assay; design: species or system Mycolicibacterium smegmatis
Escherichia coli [9] = assay: Antibacterial activity against Escherichia coli ANS1 assessed as bacterial growth inhibition incubated for 20 hrs by broth microdilution method; assay type: functional
[10] = Inhibition of FAS1 in Mycobacterium smegmatis mc2 155 transfected with pVV16 vector by BCA assay; design: species or system Mycolicibacterium smegmatis
Staphylococcus xylosus [11] = assay: Inhibition of Staphylococcus xylosus ATCC 700404 IGPD at 40 ug/ml relative to control; conditions: dose 40.0 µg/ml
Staphylococcus xylosus [12] = assay: Antibacterial activity against Staphylococcus xylosus ATCC 700404 assessed bacterial growth inhibition incubated for 24 hrs by Broth microdilution method; assay type: functional
[13] = Inhibition of FAS2 in Mycobacterium smegmatis mc2 155 transfected with pVV16 vector by BCA assay; design: species or system Mycolicibacterium smegmatis

Compound | IC50 [1] | inhibition at 6.25 µM (Escherichia coli [2]) | inhibition at 200 µM (Escherichia coli [3]) | IC50 [4] | IC50 [5] | inhibition at 20 µg/mL (Staphylococcus xylosus [6]) | IC50 [7] | IC50 [8] | MIC (Escherichia coli [9]) | IC50 [10] | inhibition (Staphylococcus xylosus [11]) | MIC (Staphylococcus xylosus [12]) | IC50 [13]
COc1cc(O)ccc1/C=C/C(=O)c1ccc(O)cc1 [ECHINATIN] | 21.7 µM | 40% | 71.5% |  |  |  |  |  |  |  |  |  | 
O=C(/C=C/c1ccc(O)cc1)c1ccc(O)cc1O [ISOLIQUIRITIGENIN] |  |  |  | 40 µM | 20 µM | 45% | 17 µg/mL (≈ 66.3 µM) | 96 µg/mL (≈ 375 µM) | 25 µM (≈ 6.41 µg/mL) | 96 µg/mL (≈ 375 µM) | 60% | 80 µg/mL (≈ 312 µM) | 7 µg/mL (≈ 27.3 µM)
